Test results reported in ChEMBL document CHEMBL4308894, “Synthesis and evaluation of biological activity for dual-acting antibiotics on the basis of azithromycin and glycopeptides” (Bioorg Med Chem Lett, 2019).
Converted amounts (≈) assume the structure as drawn. The source made the active and inactive calls. The rule behind the calls is not given here.

How the values were obtained:
[1] = system: Staphylococcus epidermidis; assay: Antibacterial activity against Staphylococcus epidermidis isolate 533 by micro dilution method; assay type: functional
[2] = system: Staphylococcus aureus; assay: Antibacterial activity against Staphylococcus aureus isolate 10 by micro dilution method; assay type: functional
[3] = system: Staphylococcus aureus; assay: Antibacterial activity against Staphylococcus aureus isolate 3798 by micro dilution method; assay type: functional
[4] = system: Staphylococcus aureus; assay: Antibacterial activity against Staphylococcus aureus isolate 1025 by micro dilution method; assay type: functional
[5] = system: Enterococcus faecium; assay: Antibacterial activity against Enterococcus faecium isolate 569 by micro dilution method; assay type: functional
[6] = system: Enterococcus faecalis; assay: Antibacterial activity against Enterococcus faecalis isolate 560 by micro dilution method; assay type: functional
[7] = system: Streptococcus pneumoniae; assay: Antibacterial activity against Streptococcus pneumoniae ATCC 49619 by micro dilution method; assay type: functional
[8] = system: Enterococcus gallinarum; assay: Antibacterial activity against Streptococcus gallinarum ATCC 35038 by micro dilution method; assay type: functional
[9] = system: Streptococcus agalactiae; assay: Antibacterial activity against Streptococcus agalactiae isolate 52 by micro dilution method; assay type: functional
[10] = system: Escherichia coli; assay: Antibacterial activity against Escherichia coli ATCC 25922 by micro dilution method; assay type: functional
[11] = system: Salmonella typhimurium; assay: Antibacterial activity against Salmonella choleraesuis ATCC 14028 by micro dilution method; assay type: functional, Salmonella enterica subsp. enterica serovar Typhimurium; conditions: Salmonella enterica
[12] = system: Klebsiella pneumoniae; assay: Antibacterial activity against Klebsiella pneumoniae ATCC 13883 by micro dilution method; assay type: functional
[13] = system: Staphylococcus aureus; assay: Antibacterial activity against Staphylococcus aureus isolate 10 infected in iv dosed C57BL/6 mouse measured for 10 days; assay type: functional; conditions: isolate 10, iv, 240 h
[14] = system: Staphylococcus aureus; assay: Antibacterial activity against Staphylococcus aureus isolate 10 infected in C57BL/6 mouse assessed as survival rate at 2.5 mg/kg, iv measured for 10 days (reference value: 0%); assay type: functional; conditions: isolate 10, iv, 240 h
[15] = system: Staphylococcus aureus; assay: Antibacterial activity against Staphylococcus aureus isolate 10 infected in C57BL/6 mouse assessed as survival rate at 3.5 mg/kg, iv measured for 10 days (reference value: 0%); assay type: functional; conditions: isolate 10, iv, 240 h
[16] = system: Staphylococcus aureus; assay: Antibacterial activity against Staphylococcus aureus isolate 10 infected in C57BL/6 mouse assessed as survival rate at 4.5 mg/kg, iv measured for 10 days (reference value: 0%); assay type: functional; conditions: isolate 10, iv, 240 h
[17] = system: Staphylococcus aureus; assay: Antibacterial activity against Staphylococcus aureus isolate 10 infected in C57BL/6 mouse assessed as survival rate at 5.5 mg/kg, iv measured for 10 days (reference value: 0%); assay type: functional; conditions: isolate 10, iv, 240 h
[18] = system: Staphylococcus aureus; assay: Antibacterial activity against Staphylococcus aureus isolate 10 infected in C57BL/6 mouse assessed as survival rate at 6.5 mg/kg, iv measured for 10 days (reference value: 0%); assay type: functional; conditions: isolate 10, iv, 240 h
[19] = system: Staphylococcus aureus; assay: Antibacterial activity against Staphylococcus aureus isolate 10 infected in C57BL/6 mouse assessed as survival rate at 7.5 mg/kg, iv measured for 10 days (reference value: 0%); assay type: functional; conditions: isolate 10, iv, 240 h
[20] = Elimination half life in patient with normal creatinine clearance; assay type: ADME; conditions: human, in vivo; read-out: beta t1/2
[21] = system: Staphylococcus aureus; assay: Antibacterial activity against Staphylococcus aureus ATCC 25923 by micro dilution method; assay type: functional
[22] = system: Staphylococcus aureus; assay: Antibacterial activity against Staphylococcus aureus isolate 3797 by micro dilution method; assay type: functional
[23] = system: Enterococcus faecium; assay: Antibacterial activity against Enterococcus faecium isolate 568 by micro dilution method; assay type: functional
[24] = system: Escherichia coli; assay: Induction of translation arrest in tolC-deficient Escherichia coli harboring pRFPCER-TrpL2A assessed as increase in pRFPCER-TrpL2A reporter activity at 10 mg/ml after overnight incubation by dual fluorescent-reporter gene assay; assay type: functional, organism-based
[25] = Half life in human serum; assay type: ADME, cell-free

## CN[C@H](CC(C)C)C(=O)N[C@H]1C(=O)N[C@@H](CC(N)=O)C(=O)N[C@H]2C(=O)N[C@H]3C(=O)N[C@H](C(=O)N[C@H](C(=O)O)c4cc(O)cc(O)c4-c4cc3ccc4O)[C@H](O)c3ccc(c(Cl)c3)Oc3cc2cc(c3O[C@@H]2O[C@H](CO)[C@@H](O)[C@H](O)[C@H]2O[C@H]2C[C@](C)(N)[C@H](O)[C@H](C)O2)Oc2ccc(cc2Cl)[C@H]1O [VANCOMYCIN]
[1]
  MIC: 0.5 µg/mL (≈ 0.345 µM)
[2]
  MIC: 0.25 µg/mL (≈ 0.173 µM)
[3]
  MIC: 8 µg/mL (≈ 5.52 µM)
[4]
  MIC: 8 µg/mL (≈ 5.52 µM)
[5]
  MIC: > 32 µg/mL
[6]
  MIC: > 32 µg/mL
[7]
  MIC: 2 µg/mL (≈ 1.38 µM)
[8]
  MIC: 4 µg/mL (≈ 2.76 µM)
[9]
  MIC: 8 µg/mL (≈ 5.52 µM)
[10]
  MIC: > 32 µg/mL
[11]
  MIC: > 32 µg/mL
[12]
  MIC: > 32 µg/mL
[13]
  ED50: 4.2 mg/kg
[14]
  survival at 2.5 mg/kg: 30%
[15]
  survival at 3.5 mg/kg: 40%
[16]
  survival at 4.5 mg/kg: 50%
[17]
  survival at 5.5 mg/kg: 70%
[18]
  survival at 6.5 mg/kg: 90%
[19]
  survival at 7.5 mg/kg: 100%
[20]
  half-life: 360 to 720 min

## CC[C@H]1OC(=O)[C@H](C)[C@@H](O[C@H]2C[C@@](C)(OC)[C@@H](O)[C@H](C)O2)[C@H](C)[C@@H](O[C@@H]2O[C@H](C)C[C@H](N(C)C)[C@H]2O)[C@](C)(O)C[C@@H](C)CN(C)[C@H](C)[C@@H](O)[C@]1(C)O [AZITHROMYCIN]
[21]
  MIC: 1 µg/mL (≈ 1.34 µM)
[1]
  MIC: 2 µg/mL (≈ 2.67 µM)
[2]
  MIC: 1 µg/mL (≈ 1.34 µM)
[22]
  MIC: > 32 µg/mL
[3]
  MIC: > 32 µg/mL
[4]
  MIC: 16 µg/mL (≈ 21.4 µM)
[23]
  MIC: 8 µg/mL (≈ 10.7 µM)
[5]
  MIC: 8 µg/mL (≈ 10.7 µM)
[6]
  MIC: > 32 µg/mL
[7]
  MIC: 8 µg/mL (≈ 10.7 µM)
[8]
  MIC: 4 µg/mL (≈ 5.34 µM)
[9]
  MIC: > 32 µg/mL
[10]
  MIC: 8 µg/mL (≈ 10.7 µM)
[11]
  MIC: 16 µg/mL (≈ 21.4 µM)
[12]
  MIC: 16 µg/mL (≈ 21.4 µM)
[24]
  Activity: Active
[25]
  half-life: 2.83 days

## CC[C@H]1OC(=O)[C@H](C)[C@@H](O[C@H]2C[C@@](C)(OC)[C@@H](OC(=O)NCCNC(=O)[C@H]3NC(=O)[C@H]4NC(=O)[C@H](NC(=O)[C@@H]5NC(=O)[C@H](CC(N)=O)NC(=O)[C@H](NC(=O)[C@@H](CC(C)C)NC)[C@H](O)c6ccc(c(Cl)c6)Oc6cc5cc(c6O[C@@H]5O[C@H](CO)[C@@H](O)[C@H](O)[C@H]5O[C@H]5C[C@](C)(N)[C@H](O)[C@H](C)O5)Oc5ccc(cc5Cl)[C@H]4O[C@H]4C[C@](C)(N)[C@@H](O)[C@H](C)O4)c4ccc(O)c(c4)-c4c(O)cc(O)cc43)[C@H](C)O2)[C@H](C)[C@@H](O[C@@H]2O[C@H](C)C[C@H](N(C)C)[C@H]2O)[C@](C)(O)C[C@@H](C)CN(C)[C@H](C)[C@H]2OC(=O)O[C@]21C
[21]
  MIC: 1 µg/mL (≈ 0.411 µM)
[1]
  MIC: 2 µg/mL (≈ 0.821 µM)
[2]
  MIC: 0.06 µg/mL (≈ 0.0246 µM)
[22]
  MIC: 4 µg/mL (≈ 1.64 µM)
[3]
  MIC: 8 µg/mL (≈ 3.28 µM)
[4]
  MIC: 8 µg/mL (≈ 3.28 µM)
[23]
  MIC: 1 µg/mL (≈ 0.411 µM)
[5]
  MIC: 8 µg/mL (≈ 3.28 µM)
[6]
  MIC: 16 µg/mL (≈ 6.57 µM)
[7]
  MIC: 1 µg/mL (≈ 0.411 µM)
[8]
  MIC: 4 µg/mL (≈ 1.64 µM)
[9]
  MIC: 8 µg/mL (≈ 3.28 µM)
[10]
  MIC: > 32 µg/mL
[11]
  MIC: > 32 µg/mL
[12]
  MIC: > 32 µg/mL
[13]
  ED50: 4.7 mg/kg
[14]
  survival at 2.5 mg/kg: 30%
[15]
  survival at 3.5 mg/kg: 20%
[16]
  survival at 4.5 mg/kg: 40%
[17]
  survival at 5.5 mg/kg: 70%
[18]
  survival at 6.5 mg/kg: 70%
[19]
  survival at 7.5 mg/kg: 80%
[24]
  Activity: Active

## CC[C@H]1OC(=O)[C@H](C)[C@@H](O[C@H]2C[C@@](C)(OC)[C@@H](OC(=O)NCCCNC(=O)[C@H]3NC(=O)[C@H]4NC(=O)[C@H](NC(=O)[C@@H]5NC(=O)[C@H](CC(N)=O)NC(=O)[C@H](NC(=O)[C@@H](CC(C)C)NC)[C@H](O)c6ccc(c(Cl)c6)Oc6cc5cc(c6O[C@@H]5O[C@H](CO)[C@@H](O)[C@H](O)[C@H]5O[C@H]5C[C@](C)(N)[C@H](O)[C@H](C)O5)Oc5ccc(cc5Cl)[C@H]4O[C@H]4C[C@](C)(N)[C@@H](O)[C@H](C)O4)c4ccc(O)c(c4)-c4c(O)cc(O)cc43)[C@H](C)O2)[C@H](C)[C@@H](O[C@@H]2O[C@H](C)C[C@H](N(C)C)[C@H]2O)[C@](C)(O)C[C@@H](C)CN(C)[C@H](C)[C@H]2OC(=O)O[C@]21C
[21]
  MIC: 1 µg/mL (≈ 0.408 µM)
[1]
  MIC: 1 µg/mL (≈ 0.408 µM)
[2]
  MIC: 0.06 µg/mL (≈ 0.0245 µM)
[22]
  MIC: 4 µg/mL (≈ 1.63 µM)
[3]
  MIC: 4 µg/mL (≈ 1.63 µM)
[4]
  MIC: 16 µg/mL (≈ 6.53 µM)
[23]
  MIC: 0.5 µg/mL (≈ 0.204 µM)
[5]
  MIC: 4 µg/mL (≈ 1.63 µM)
[6]
  MIC: 8 µg/mL (≈ 3.27 µM)
[7]
  MIC: 1 µg/mL (≈ 0.408 µM)
[8]
  MIC: 2 µg/mL (≈ 0.816 µM)
[9]
  MIC: 4 µg/mL (≈ 1.63 µM)
[10]
  MIC: > 32 µg/mL
[11]
  MIC: > 32 µg/mL
[12]
  MIC: > 32 µg/mL
[24]
  Activity: inactive

## CC[C@H]1OC(=O)[C@H](C)[C@@H](O[C@H]2C[C@@](C)(OC)[C@@H](OC(=O)NCCNC(=O)[C@H]3NC(=O)[C@H]4NC(=O)[C@H](NC(=O)[C@@H]5NC(=O)[C@H](CC(N)=O)NC(=O)[C@H](NC(=O)[C@@H](CC(C)C)NC)[C@H](O)c6ccc(c(Cl)c6)Oc6cc5cc(c6O[C@@H]5O[C@H](CO)[C@@H](O)[C@H](O)[C@H]5O[C@H]5C[C@](C)(N)[C@H](O)[C@H](C)O5)Oc5ccc(cc5Cl)[C@H]4O)c4ccc(O)c(c4)-c4c(O)cc(O)cc43)[C@H](C)O2)[C@H](C)[C@@H](O[C@@H]2O[C@H](C)C[C@H](N(C)C)[C@H]2O)[C@](C)(O)C[C@@H](C)CN(C)[C@H](C)[C@H]2OC(=O)O[C@]21C
[21]
  MIC: 1 µg/mL (≈ 0.436 µM)
[1]
  MIC: 1 µg/mL (≈ 0.436 µM)
[2]
  MIC: 1 µg/mL (≈ 0.436 µM)
[22]
  MIC: 4 µg/mL (≈ 1.74 µM)
[3]
  MIC: > 32 µg/mL
[4]
  MIC: > 32 µg/mL
[23]
  MIC: 1 µg/mL (≈ 0.436 µM)
[5]
  MIC: > 32 µg/mL
[6]
  MIC: 32 µg/mL (≈ 14 µM)
[7]
  MIC: 1 µg/mL (≈ 0.436 µM)
[8]
  MIC: 4 µg/mL (≈ 1.74 µM)
[9]
  MIC: 32 µg/mL (≈ 14 µM)
[10]
  MIC: > 32 µg/mL
[11]
  MIC: > 32 µg/mL
[12]
  MIC: > 32 µg/mL
[24]
  Activity: Active
